Data taken from patent publication US8871681B2, “Herbicidal compositions comprising 4-amino-3-chloro-5-fluoro-6-(4-chloro-2-fluoro-3-methoxyphenyl) pyridine-2-carboxylic acid or a derivative thereof and certain sulfonylureas” (Dow AgroSciences LLC, priority 2012, dated 2014).
Values joined by “and” are separate entries in the source; they are usually repeats but may differ in a detail not shown here. Equal values may be shown once.

How the values were obtained:
[1] = system: ECHCO (Echinochloa colona, junglerice); test: In-water applied weed control, transplanted paddy rice, greenhouse (Example II); assay type: in vivo, Echinochloa colona (L.) Link
Description: Weed seeds or nutlets of the desired test plant species were planted in puddled soil (mud) prepared by mixing a shredded, non-sterilized mineral soil (50.5 percent silt, 25.5 percent clay, and 24 percent sand, with a pH of about 7.6 and an organic matter content of about 2.9 percent) and water at a 1:1 volumetric ratio. The prepared mud was dispensed in 365 mL aliquots into 16-ounce (oz.) non-perforated plastic pots with a surface area of 86.59 square centimeters (cm^2) leaving a headspace of 3 centimeters (cm) in each pot. Rice seeds were planted in Sun Gro MetroMix® 306 planting mixture, which typically has a pH of 6.0 to 6.8 and an organic matter content of about 30 percent, in plastic plug trays. Seedlings at the second or third leaf stage of growth were transplanted into 860 mL of mud contained in 32-oz. non-perforated plastic pots with a surface area of 86.59 cm^2 4 days prior to herbicide application. The paddy was created by filling the headspace of the pots with 2.5 to 3 cm of water. When required to ensure good germination and healthy plants, a fungicide treatment and/or other chemical or physical treatment was applied. The plants were grown for 4-22 days in a greenhouse with an approximate 14 h photoperiod which was maintained at about 29′C during the day and 26° C. during the night. Nutrients were added as Osmocote® (19:6:12, N:P:K+minor nutrients) at 2 g per 16-oz. pot and 4 g per 32-oz. pot. Water was added on a regular basis to maintain the paddy flood, and supplemental lighting was provided with overhead metal halide 1000-Watt lamps as necessary. The plants were employed for testing when they reached the first through fourth true leaf stage.
Treatments consisted of the acid or esters of 4-amino-3-chloro-5-fluoro-6-(4-chloro-2-fluoro-3-methoxy-phenyl)pyridine-2-carboxylic acid (compound A) each formulated as an SC and various herbicidal components alone and in combination. Forms of compound A were applied on an acid equivalent basis.
Other herbicidal components were applied on an active ingredient basis and included acetolactate synthase (ALS)-inhibiting herbicides (sulfonylurea chemical class), azimsulfuron formulated as Gulliver®, bensulfuron-methyl formulated as Londax® 60DF, cyclosulfamuron (technical grade materail), ethoxysulfuron formulated as Sunrice® 15 WDG, flucetosulfuron formulated as Sukedachi® 1KG G, imazosulfuron formulated as Brazzos®, metsulfuron-methyl formulated as Lorate®, nicosulfuron formulated as Accent®, orthosulfamuron formulated as Strada® WG, propyrisulfuron formulated as Zeta One®, and rimsulfuron formulated as Matrix® WG.
Treatment requirements for each compound or herbicidal component were calculated based upon the rates being tested, the concentration of active ingredient or acid equivalent in the formulation, an application volume of 2 mL per component per pot, and an application area of 86.59 cm^2 per pot.
For formulated compounds, a measured amount was placed in an individual 100 or 200 mL glass vial and was dissolved in a volume of 1.25% (v/v) Agri-Dex® crop oil concentrate to obtain application solutions.
For technical grade compounds, a weighed amount was placed in an individual 100 to 200 mL glass vial and was dissolved in a volume of acetone to obtain concentrated stock solutions. […] The concentrated stock solutions obtained were diluted with an equivalent volume of an aqueous mixture containing 2.5% (v/v) crop oil concentrate so that the final application solutions contained 1.25% (v/v) crop oil concentrate.
Applications were made by injecting with a pipetter appropriate amounts of the application solutions, individually and sequentially, into the aqueous layer of the paddy. Control plants were treated in the same manner with the solvent blank. Applications were made so that all treated plant material received the same concentrations of acetone and crop oil concentrate. […]

[2] = system: CYPES (Cyperus esculentus, yellow nutsedge); test: Postemergence foliar-applied weed control, direct seeded rice, greenhouse (Example I); assay type: in vivo, Cyperus esculentus L.; conditions: 20 DAA
Source text: Seeds or nutlets of the desired test plant species were planted in a soil matrix prepared by mixing a loam or sandy loam soil (e.g., 28.6 percent silt, 18.8 percent clay, and 52.6 percent sand, with a pH of about 5.8 and an organic matter content of about 1.8 percent) and calcareous grit in an 80 to 20 ratio. The soil matrix was contained in plastic pots with a volume of 1 quart and a surface area of 83.6 square centimeters (cm^2). When required to ensure good germination and healthy plants, a fungicide treatment and/or other chemical or physical treatment was applied. The plants were grown for 8-22 days in a greenhouse with an approximate 14 h photoperiod which was maintained at about 29° C. during the day and 26° C. during the night. Nutrients (Peters Excel® 15-5-15 5-Ca 2-Mg and iron chelate) were applied in the irrigation solution as needed and water was added on a regular basis. Supplemental lighting was provided with overhead metal halide 1000-Watt lamps as necessary. The plants were employed for testing when they reached the first through fourth true leaf stage.
Treatments consisted of the acid or esters of 4-amino-3-chloro-5-fluoro-6-(4-chloro-2-fluoro-3-methoxy-phenyl)pyridine-2-carboxylic acid (Compound A), each formulated as an SC, and various herbicidal components alone and in combination. Forms of compound A were applied on an acid equivalent basis.
Other herbicidal components were applied on an active ingredient basis and included acetolactate synthase (ALS)-inhibiting herbicides (sulfonylurea chemical class) azimsulfuron formulated as Gulliver®, bensulfuron-methyl formulated as Londax® 60DF, cyclosulfamuron (technical material), ethoxysulfuron formulated as Sunrice® 15 WDG, flazasulfuron formulated as Katana®, flucetosulfuron formulated as Sukedachi® 1KG G, foramsulfuron formulated as Option®, imazosulfuron formulated as Brazzos® WG, iodosulfuron-methyl-sodium formulated as Hussar®, metsulfuron-methyl formulated as Lorate®, nicosulfuron formulated as Accent®, orthosulfamuron formulated as Strada® WG, primisulfuron-methyl (technical material), propyrisulfuron formulated as Zeta One®, rimsulfuron formulated as Matrix® WG, sulfometuron-methyl formulated as Oust®, and trifloxysulfuron-sodium formulated as Monument® 75WG.
Treatment requirements were calculated based upon the rates being tested, the concentration of active ingredient or acid equivalent in the formulation, and a 12 mL application volume at a rate of 187 L/ha.
For treatments comprised of formulated compounds, measured amounts of compounds were placed individually in 25 mL glass vials and diluted in a volume of 1.25% (v/v) Agri-Dex® crop oil concentrated to obtain 12× stock solutions. […] Application solutions were prepared by adding an appropriate amount of each stock solution (e.g., 1 mL) and diluted to the appropriate final concentrations with the addition of 10 mL of an aqueous mixture of 1.25% (v/v) crop oil concentrate so that the final spray solutions contained 1.25+/−0.05% (v/v) Agrcrop oil concentrate.
For treatments comprised of formulated and technical compounds, weighed amounts of the technical materials were placed individually in 25 mL glass vials and dissolved in a volume of 97:3 v/v acetone/DMSO to obtain 12× stock solutions, and measured amounts of the formulated compounds were placed individually in 25 mL glass vials and diluted in a volume of 1.25% (v/v) crop oil concentrate to obtain 12× stock solutions. […] Application solutions were prepared by adding an appropriate amount of each stock solution (e.g., 1 mL) and diluted to the appropriate final concentrations with the addition of an appropriate amount of an aqueous mixture of 1.5% (v/v) crop oil concentrate so that the final spray solutions contained 1.25% (v/v) crop oil concentrate. […]

Question: What does the source list for `COc1c(Cl)ccc(-c2nc(C(=O)OCc3ccccc3)c(Cl)c(N)c2F)c1F` [Compound A Benzyl Ester]?
Answer: Visual Weed Control (%) - 21 DAA ECHCO Obs ([1]; Table 39, 4.38 gae/ha alone): 45%; Visual Weed Control (%) - 21 DAA ECHCO Obs ([1]; Table 39, 8.75 gae/ha alone): 30%; Visual Weed Control (%) - 21 DAA ECHCO Obs ([1]; Table 39, 17.5 gae/ha alone): 95%; Visual Weed Control (%) Obs ([2]; 4.38 gae/ha): 70% and 85%; Visual Weed Control (%) Obs ([2]; 8.75 gae/ha): 80% and 90%; Visual Weed Control (%) Obs ([2]; 17.5 gae/ha): 90%

Question: Which results are given for `COc1c(Cl)ccc(-c2nc(C(=O)O)c(Cl)c(N)c2F)c1F` [Compound A Acid, 4-amino-3-chloro-5-fluoro-6-(4-chloro-2-fluoro-3-methoxy-phenyl)pyridine-2-carboxylic acid]?
Answer: Visual Weed Control (%) Obs ([2]; 4.38 gae/ha): 30%; Visual Weed Control (%) Obs ([2]; 5.3 gae/ha): 0%; Visual Weed Control (%) Obs ([2]; 8.75 gae/ha): 70%
